Several values for one entry are separate records, joined by “and”; a condition that tells them apart may be missing. Equal values may be shown once.
Experiments:
[1] = test system: β-Oxidation of (1-14C) palmitic acid in cells; assay: β-Oxidation assay, isolation of acid soluble products; format: cell-based; design: unit not given here
Method: A 24 well plate with 1 ml per well was prepared with 2.5×10^5 cells /well. The cells were incubated O/N. The next day, a solubilized palmitate solution was prepared. 50 μls of (1−^14C) Palmitic acid was added to a 2 ml centrifuge tube and dried under nitrogen gas. 2 mls of α-CD (α-Cyclodextran)—10 mg/ml in 10 mM Tris were added. This solution was incubated in a 37° C. water bath for 30 minutes. A hot mix was prepared by adding 25 μl of this solution to 2.5 μls of 200 μM Carnitine and 222.5 μl of serum free medium that is used for cells. The cells were then treated with the test compound in triplicate, and incubated. at 37° C. for 60 minutes. The medium was removed and 250 μl of the hot mix were added. The test compound was added again, and further incubated at 37° C. for 60 minutes. The reaction was stopped with 50 μl of 2.6 N HClO4. The contents of the plate were transferred to a 1.5 ml centrifuge tube, and 50 μl of 4N KOH were then added, and the tube incubated in a 60° C. water bath for 30 min. Sodium acetate (1 M, 75 μl) and sulfuric acid (3N, 50 μl) were added to the solution and vortexed. The tube was spun for 7 minutes at 1000 rpm at room temperature. A portion (225 μl) was removed, and the following were added (vortex after each addition, twice at the end): 938 μl of 1:1 Chloroform: Methanol; 468 μl of Chloroform; 281 μl distilled Water. The tubes were spun at 1000 rpm for 5 minutes. The upper phase was removed into a large glass scintillation vial and 5 ml of Budget solvent (scintillation liquid) was added. The tubes were well vortexed. Finally, ^14C was counted for one minute.

[2] = molecular target: rat liver acyl-CoA synthetase; conditions: read-out: 50% inhibition of rat liver acyl-CoA synthetase; cited from earlier work
Raji cells = conditions: cited from earlier work
viral HIV protease = viral HIV protease (Human immunodeficiency virus type 1 group M subtype B, UniProt P04585); conditions: cited from earlier work
[3] = test system: Mycobacterium tuberculosis; conditions: in vitro; cited from earlier work

Compound: CCCCCCCCC1OC(=O)C(O)=C1C(=O)OCC (stereo not shown) [Compound 1]
- Beta oxidation ([1]; 0.04 ug/ml): 94 and 103 and 120
- Beta oxidation ([1]; 0.19 ug/ml): 108 and 104 and 113
- Beta oxidation ([1]; 3.13 ug/ml): 113 and 109 and 107
- Beta oxidation ([1]; 12.5 ug/ml): 114 and 107 and 100
- Beta oxidation ([1]; 50 ug/ml): 54 and 49 and 45
- Beta oxidation ([1]; .78 ug/ml): 104 and 106

Compound: CCCC=CCC=CC=CC=NN=NO [Triacsin C, 1-hydroxy-3-(E, E, E-2′,4′,7′-undecatrienylidine) triazene]
- IC50 [2]: 8.7 µM
- concentration causing growth inhibition in Raji cells (Raji cells): 1.0 µM

Compound: C/C=C/C/C=C/CCC(=O)[C@H]1O[C@H]1C(N)=O [cerulenin, (2s, 3R)-2,3-epoxy-4-oxo-7,10 dodecadienoyl amide]
- concentration for inhibition of viral HIV protease (viral HIV protease): 5 mg/mL
- activity against Mycobacterium tuberculosis [3]: no activity

Source: patent US20100029761A1, “NOVEL COMPOUNDS, PHARMACEUTICAL COMPOSITIONS CONTAINING SAME, AND METHODS OF USE FOR SAME” (priority 2005, published 2010)
